{"source": "patent US20220305012A1", "about": "“L[…] TREATING SLEEP ISSUES” (EISAI R&D MANAGEMENT CO., LTD., priority 2019, published 2022)", "key": {"[1]": {"system": "Subjects Having Insomnia Disorder", "test": "Example 2: latency to persistent sleep (LPS), polysomnography", "type": "in vivo, human", "procedure": "As used herein, the term “latency to persistent sleep”, abbreviated as “LPS.” means the minutes from lights off to the first epoch of 20 consecutive epochs (10 minutes) of non-wakefulness.\n(§1) In some embodiments, a sleep parameter is determined objectively using polysomnography. Polysomnography is the monitoring of multiple electrophysiological parameters during sleep and generally includes measurement of EEG activity, electro-oculographic activity and electromyographic activity, as well as other measurements.\nLPS—latency to persistent sleep: minutes from lights off to the first epoch of 20 consecutive epochs of non-wakefulness.\n(§2) The treatment period lasted for 31 days. Subjects were randomized in a double-blind manner and received placebo, a tablet containing 5 mg of lemborexant, a tablet containing 10 mg of lemborexant, or a tablet containing 6.25 mg of zolpidem ER.\n(§3) Within 5 minutes of the subject's mean habitual bedtime, study drug was administered and an overnight polysomnogram recording was initiated. At completion of the recording the following morning (Day 2), postural stability and cognitive performance were assessed. On the Day 2 evening, subjects returned to the clinic and a blood sample was collected before administering study drug, and then study drug was administered within 5 minutes of the subject's mean habitual bedtime. Again, a polysomnogram recording was initiated. The next morning (Day 3), postural stability and cognitive performance were assessed. A blood sample was also collected.\n(§4) On Day 29, subjects returned to the clinic. Study drug was administered within 5 minutes of the subject's mean habitual bedtime and a polysomnogram recording was conducted. On the following morning (Day 30), postural stability and cognitive performance were assessed. After 1.5 hours of waketime, subjects rated their morning sleepiness level.\n(§5) On the evening of Day 30, subjects returned to the clinic. A pre-dose blood sample was collected and study drug was again administered within 5 minutes of the subject's mean habitual bedtime. A polysomnogram recording was initiated. The following morning (Day 31), postural stability and cognitive performance were assessed and a blood sample was obtained. The ISI, FSS, EQ-5D-3L and PGI-Insomnia were administered. Blood and urine samples were collected for routine safety assessment. An electrocardiogram was performed, and vital signs and weight were assessed. The eC-SSRS was then administered to the subject. At 1.5 hours after waketime, subjects rated their morning sleepiness level.\nThe primary endpoint was to determine the change from baseline for mean latency to persistent sleep on days 29 and 30 of 5 mg or 10 mg lemborexant compared to placebo."}, "[2]": {"system": "Subjects Having Insomnia Disorder", "test": "Example 2: sleep efficiency (SE), polysomnography", "type": "in vivo, human", "procedure": "as §1\nSE—sleep efficiency: proportion of time spent asleep per time in bed, calculated as TST/interval from lights off until lights on.\nas §2, §3, §4, §5\nOne key secondary endpoint was to determine the change from baseline for mean sleep efficiency on Days 29 and 30 after administration of 5 mg or 10 mg of lemborexant, compared to placebo."}}, "data": [{"smiles": "Cc1ncc(OC[C@@]2(c3cccc(F)c3)C[C@H]2C(=O)Nc2ccc(F)cn2)c(C)n1", "note": "[Lemborexant, (1R,2S)-2-(((2,4-dimethylpyrimidin-5-yl)oxy)methyl)-2-(3-fluorophenyl)-N-(5-fluoropyridin-2-yl)cyclopropanecarboxamide]", "values": [{"measurement": "LPS LSM treatment ratio: Lemborexant/Zolpidem", "setting": "[1]; 5 mg vs zolpidem ER 6.25 mg, Days 1/2", "result": 0.874}, {"measurement": "LPS LSM treatment ratio: Lemborexant/Zolpidem", "setting": "[1]; 5 mg vs zolpidem ER 6.25 mg, Days 29/30", "result": 0.634}, {"measurement": "LPS LSM treatment ratio: Active/Placebo", "setting": "[1]; 5 mg, Days 1/2", "result": 0.850}, {"measurement": "LPS, Mean", "setting": "[1]; 5 mg, Days 1/2", "result": 28.27, "unit": "min"}, {"measurement": "LPS, Median", "setting": "[1]; 5 mg, Days 1/2", "result": 21.63, "unit": "min"}, {"measurement": "LPS LSM treatment ratio: Active/Placebo", "setting": "[1]; 5 mg, Days 29/30", "result": 0.773}, {"measurement": "LPS, Mean", "setting": "[1]; 5 mg, Days 29/30", "result": 25.84, "unit": "min"}, {"measurement": "LPS, Median", "setting": "[1]; 5 mg, Days 29/30", "result": 18.75, "unit": "min"}, {"measurement": "LPS, Mean", "setting": "[1]; 5 mg, Study Baseline", "result": 44.86, "unit": "min"}, {"measurement": "LPS, Median", "setting": "[1]; 5 mg, Study Baseline", "result": 33.13, "unit": "min"}, {"measurement": "LPS Change from Study Baseline, Mean", "setting": "[1]; 5 mg, at Days 1/2", "result": -16.59, "unit": "min"}, {"measurement": "LPS Change from Study Baseline, Median", "setting": "[1]; 5 mg, at Days 1/2", "result": -10.00, "unit": "min"}, {"measurement": "LPS Change from Study Baseline, Mean", "setting": "[1]; 5 mg, at Days 29/30", "result": -19.53, "unit": "min"}, {"measurement": "LPS Change from Study Baseline, Median", "setting": "[1]; 5 mg, at Days 29/30", "result": -12.00, "unit": "min"}, {"measurement": "LPS LSM treatment ratio: Lemborexant/Zolpidem", "setting": "[1]; 10 mg vs zolpidem ER 6.25 mg, Days 1/2", "result": 0.818}, {"measurement": "LPS LSM treatment ratio: Lemborexant/Zolpidem", "setting": "[1]; 10 mg vs zolpidem ER 6.25 mg, Days 29/30", "result": 0.594}, {"measurement": "LPS LSM treatment ratio: Active/Placebo", "setting": "[1]; 10 mg, Days 1/2", "result": 0.795}, {"measurement": "LPS, Mean", "setting": "[1]; 10 mg, Days 1/2", "result": 25.13, "unit": "min"}, {"measurement": "LPS, Median", "setting": "[1]; 10 mg, Days 1/2", "result": 21.75, "unit": "min"}, {"measurement": "LPS LSM treatment ratio: Active/Placebo", "setting": "[1]; 10 mg, Days 29/30", "result": 0.723}, {"measurement": "LPS, Mean", "setting": "[1]; 10 mg, Days 29/30", "result": 22.75, "unit": "min"}, {"measurement": "LPS, Median", "setting": "[1]; 10 mg, Days 29/30", "result": 19.25, "unit": "min"}, {"measurement": "LPS, Mean", "setting": "[1]; 10 mg, Study Baseline", "result": 44.61, "unit": "min"}, {"measurement": "LPS, Median", "setting": "[1]; 10 mg, Study Baseline", "result": 38.50, "unit": "min"}, {"measurement": "LPS Change from Study Baseline, Mean", "setting": "[1]; 10 mg, at Days 1/2", "result": -19.48, "unit": "min"}, {"measurement": "LPS Change from Study Baseline, Median", "setting": "[1]; 10 mg, at Days 1/2", "result": -10.50, "unit": "min"}, {"measurement": "LPS Change from Study Baseline, Mean", "setting": "[1]; 10 mg, at Days 29/30", "result": -21.46, "unit": "min"}, {"measurement": "LPS Change from Study Baseline, Median", "setting": "[1]; 10 mg, at Days 29/30", "result": -16.25, "unit": "min"}, {"measurement": "mean latency to persistent sleep", "setting": "[1]; all lemborexant treatment groups, relative to baseline, placebo group, and zolpidem group (Table 13)", "result": "reduced"}, {"measurement": "Sleep Efficiency, Change from Study Baseline, Mean (SD)", "setting": "[2]; Days 1/2, Lemborexant 5 mg", "result": "13.60 (9.725)"}, {"measurement": "Sleep Efficiency, Change from Study Baseline, Median", "setting": "[2]; Days 1/2, Lemborexant 5 mg", "result": 12.40}, {"measurement": "Sleep Efficiency, Mean (SD)", "setting": "[2]; Days 1/2, Lemborexant 5 mg", "result": "81.96 (8.384)"}, {"measurement": "Sleep Efficiency, Median", "setting": "[2]; Days 1/2, Lemborexant 5 mg", "result": 83.62}, {"measurement": "Sleep Efficiency, Change from Study Baseline, Mean (SD)", "setting": "[2]; Days 1/2, Lemborexant 10 mg", "result": "16.48 (9.623)"}, {"measurement": "Sleep Efficiency, Change from Study Baseline, Median", "setting": "[2]; Days 1/2, Lemborexant 10 mg", "result": 15.47}, {"measurement": "Sleep Efficiency, Mean (SD)", "setting": "[2]; Days 1/2, Lemborexant 10 mg", "result": "84.33 (7.608)"}, {"measurement": "Sleep Efficiency, Median", "setting": "[2]; Days 1/2, Lemborexant 10 mg", "result": 85.73}, {"measurement": "Sleep Efficiency, Change from Study Baseline, LSM treatment difference: Lemborexant-Zolpidem", "setting": "[2]; Days 29/30, Lemborexant 5 mg", "result": "3.92 (0.705)"}, {"measurement": "Sleep Efficiency, Change from Study Baseline, Mean (SD)", "setting": "[2]; Days 29/30, Lemborexant 5 mg", "result": "12.93 (9.741)"}, {"measurement": "Sleep Efficiency, Change from Study Baseline, Median", "setting": "[2]; Days 29/30, Lemborexant 5 mg", "result": 11.85}, {"measurement": "Sleep Efficiency, Mean (SD)", "setting": "[2]; Days 29/30, Lemborexant 5 mg", "result": "81.29 (8.800)"}, {"measurement": "Sleep Efficiency, Median", "setting": "[2]; Days 29/30, Lemborexant 5 mg", "result": 83.26}, {"measurement": "Sleep Efficiency, Change from Study Baseline, LSM treatment difference: Lemborexant-Zolpidem", "setting": "[2]; Days 29/30, Lemborexant 10 mg", "result": "4.88 (0.702)"}]}]}
